# Source: the OligoGym collection
# Values joined by “and” are separate entries in the source; they are usually repeats but may differ in a detail not shown here. Identical values can stand only once. After the bases stand the sugars from the 5' end (letter, count) and the backbone: PS all phosphorothioate, else s phosphorothioate and o phosphodiester by linkage. Methylation of C is not given here. k = constrained ethyl (cEt); d = 2'-deoxy (DNA)
# Target: MALAT1
# Conditions: ASO, A431, 0.005 µM
row,Sequence,target mRNA inhibition
1,"GCATTGCCCTTCTATT (sugars k3 d10 k3, PS)",70% and 46%
2,"GCATTTCCCATAATTG (sugars k3 d10 k3, PS)",46%
3,"GCCAACACAGTTTGCT (sugars k3 d10 k3, PS)",30%
4,"GCCAAGCACTCATATG (sugars k3 d10 k3, PS)",24%
5,"GCCATGGAAAGCGAGT (sugars k3 d10 k3, PS)",9%
6,"GCCCACAGGAACAAGT (sugars k3 d10 k3, PS)",25%
7,"GCCCCAACACTGAACT (sugars k3 d10 k3, PS)",11%
8,"GCCCCCCACGGCCCGC (sugars k3 d10 k3, PS)",10%
9,"GCCCTTCTATTGGTAT (sugars k3 d10 k3, PS)",-3%
10,"GCCGACCTCACGGATT (sugars k3 d10 k3, PS)",45%
11,"GCCGCCTGCTACCTTC (sugars k3 d10 k3, PS)",12%
12,"GCCGCCTTTGTGAGGG (sugars k3 d10 k3, PS)",25%
13,"GCCTATAAGGACAGCT (sugars k3 d10 k3, PS)",11%
14,"GCCTCCTCAATCCACT (sugars k3 d10 k3, PS)",16%
15,"GCCTCTATTGCCATGT (sugars k3 d10 k3, PS)",30%
16,"GCCTCTTCATTGTATT (sugars k3 d10 k3, PS)",10%
17,"GCCTGCTCGCCTCCTC (sugars k3 d10 k3, PS)",41%
18,"GCCTTAAAGTTACATT (sugars k3 d10 k3, PS)",10%
19,"GCCTTCCCGTACTTCT (sugars k3 d10 k3, PS)",60% and 53%
20,"GCCTTCGGTGCCTTTA (sugars k3 d10 k3, PS)",-2%
21,"GCGAATGGCTTTGTCT (sugars k3 d10 k3, PS)",7%
22,"GCGGACTTTCTCCCCC (sugars k3 d10 k3, PS)",-24%
23,"GCGGCCCCCCAGTTGC (sugars k3 d10 k3, PS)",-16%

row,Sequence,target mRNA inhibition
1,"GCGGTACACTCCTTCT (sugars k3 d10 k3, PS)",28%
2,"GCTAAGATAGCAGCAC (sugars k3 d10 k3, PS)",29%
3,"GCTACCATCAGAAGAA (sugars k3 d10 k3, PS)",22%
4,"GCTACTATATTTAAGG (sugars k3 d10 k3, PS)",29%
5,"GCTAGCTTGGCCAAGT (sugars k3 d10 k3, PS)",2%
6,"GCTCACATGCCAGTTA (sugars k3 d10 k3, PS)",32%
7,"GCTCATCACTTTATGA (sugars k3 d10 k3, PS)",10%
8,"GCTCCCCGCCTGAGCC (sugars k3 d10 k3, PS)",8%
9,"GCTCGATGGAAAAATT (sugars k3 d10 k3, PS)",10%
10,"GCTCTAGTTTCTATAA (sugars k3 d10 k3, PS)",27%
11,"GCTGTGGTTTTAATAC (sugars k3 d10 k3, PS)",49% and 57%
12,"GCTTACACACAACTGA (sugars k3 d10 k3, PS)",50%
13,"GCTTATTCCCCAATGG (sugars k3 d10 k3, PS)",73% and 48% and 50%
14,"GCTTCCTACTTTTCAG (sugars k3 d10 k3, PS)",44%
15,"GCTTGACAAGCAATTA (sugars k3 d10 k3, PS)",35%
16,"GGAAAAGTGGTTGCCC (sugars k3 d10 k3, PS)",24%
17,"GGAAATTTTTCTACCG (sugars k3 d10 k3, PS)",8%
18,"GGAACAAGTCCTACAA (sugars k3 d10 k3, PS)",23%
19,"GGAATTATTATATGCT (sugars k3 d10 k3, PS)",54%
20,"GGACAGTAGGTATAGT (sugars k3 d10 k3, PS)",11%
21,"GGACTCTTTTCCTATC (sugars k3 d10 k3, PS)",-4%
22,"GGACTTGGCAGTCTGC (sugars k3 d10 k3, PS)",27%
23,"GGAGAACAACTCGCAT (sugars k3 d10 k3, PS)",17%

row,Sequence,target mRNA inhibition
1,"GGAGGTATGACATATA (sugars k3 d10 k3, PS)",68% and 84%
2,"GGATAAAAGCAGCTCC (sugars k3 d10 k3, PS)",32%
3,"GGATGAAATGCCTCTG (sugars k3 d10 k3, PS)",24%
4,"GGATGTATATAGTTCA (sugars k3 d10 k3, PS)",30%
5,"GGCCAGACCAACCCCC (sugars k3 d10 k3, PS)",3%
6,"GGCCATCATACTGCCA (sugars k3 d10 k3, PS)",-19%
7,"GGCTCGATGGAAAAAT (sugars k3 d10 k3, PS)",33%
8,"GGGAACACAACTTTTA (sugars k3 d10 k3, PS)",33%
9,"GGGCTTTACTTTCCAT (sugars k3 d10 k3, PS)",16%
10,"GGGTTAAGCACTTTTA (sugars k3 d10 k3, PS)",57%
11,"GGTACTTCAAGCATTC (sugars k3 d10 k3, PS)",44%
12,"GGTCAATAGTGTAAAA (sugars k3 d10 k3, PS)",43%
13,"GGTCATCTATTCACAA (sugars k3 d10 k3, PS)",29%
14,"GGTGAGGCTGACACTT (sugars k3 d10 k3, PS)",27%
15,"GGTTACCATAAGTAAG (sugars k3 d10 k3, PS)",37%
16,"GGTTATGCTTATTCCC (sugars k3 d10 k3, PS)",37%
17,"GTAAAACATTGCCTAC (sugars k3 d10 k3, PS)",24%
18,"GTAACTACCAGCCATT (sugars k3 d10 k3, PS)",45%
19,"GTAACTTTAAATTGGT (sugars k3 d10 k3, PS)",55% and 63%
20,"GTACACTCCTTCTCTA (sugars k3 d10 k3, PS)",17%
21,"GTACCTGAAAAATCTT (sugars k3 d10 k3, PS)",3%
22,"GTATAGTTTACCACCT (sugars k3 d10 k3, PS)",9%
23,"GTATGCTGATAAACTC (sugars k3 d10 k3, PS)",52%

row,Sequence,target mRNA inhibition
1,"GTATTTATAGACGGAG (sugars k3 d10 k3, PS)",0%
2,"GTCCAATGCAAAAACA (sugars k3 d10 k3, PS)",-5%
3,"GTCCTAGCTTCATCAA (sugars k3 d10 k3, PS)",18%
4,"GTCCTTTACAGAAGTC (sugars k3 d10 k3, PS)",35%
5,"GTCTCGGGCTGCAGGC (sugars k3 d10 k3, PS)",-6%
6,"GTGAAAACCCACTCTT (sugars k3 d10 k3, PS)",10%
7,"GTGGCCTTGGCACACT (sugars k3 d10 k3, PS)",-10%
8,"GTTAAACTTATCTGTT (sugars k3 d10 k3, PS)",41%
9,"GTTAACAGCTGCCTGC (sugars k3 d10 k3, PS)",7%
10,"GTTAACATGCAAACTT (sugars k3 d10 k3, PS)",13%
11,"GTTACCTTGAAACCGA (sugars k3 d10 k3, PS)",47%
12,"GTTACGAAAGTCCTTC (sugars k3 d10 k3, PS)",45%
13,"GTTATATTAGGTTCTC (sugars k3 d10 k3, PS)",7%
14,"GTTCAAAGATATTGTG (sugars k3 d10 k3, PS)",0%
15,"GTTTAAGTCACCTTCA (sugars k3 d10 k3, PS)",63% and 38%
16,"TAAATACCACCACCTG (sugars k3 d10 k3, PS)",2%
17,"TAAATCATTGGGAGTT (sugars k3 d10 k3, PS)",38%
18,"TAAATCCCTTTACACC (sugars k3 d10 k3, PS)",12%
19,"TAAATTACACCAGTCC (sugars k3 d10 k3, PS)",44%
20,"TAAATTGATGGGCTTT (sugars k3 d10 k3, PS)",37%
21,"TAACAGCACATCATGC (sugars k3 d10 k3, PS)",21%
22,"TAACATGCAATACTGC (sugars k3 d10 k3, PS)",18%
23,"TAACCTATTGACTATA (sugars k3 d10 k3, PS)",22%

row,Sequence,target mRNA inhibition
1,"TAAGAGACATTCAAGC (sugars k3 d10 k3, PS)",17%
2,"TAAGATGCTAGCTTGG (sugars k3 d10 k3, PS)",25%
3,"TAAGCAATATCTTAGT (sugars k3 d10 k3, PS)",16%
4,"TAAGGAGACAGCTTTC (sugars k3 d10 k3, PS)",16%
5,"TAAGTTTTCAGCAGTA (sugars k3 d10 k3, PS)",-14%
6,"TACAAAACGAATTCAG (sugars k3 d10 k3, PS)",20%
7,"TACAAACTGCTTACAG (sugars k3 d10 k3, PS)",39%
8,"TACAATCAAGTCAAGC (sugars k3 d10 k3, PS)",-2%
9,"TACACTCCTTCTCTAA (sugars k3 d10 k3, PS)",-18%
10,"TACAGAAGTCTCGGGC (sugars k3 d10 k3, PS)",28%
11,"TACCAACCACTCGCTT (sugars k3 d10 k3, PS)",1%
12,"TACCCCAACTAAACAT (sugars k3 d10 k3, PS)",18%
13,"TACTATTGTCCCATAA (sugars k3 d10 k3, PS)",22%
14,"TACTCCAAGCATTGGG (sugars k3 d10 k3, PS)",0%
15,"TACTCTTGATCTTGAA (sugars k3 d10 k3, PS)",46%
16,"TACTGGTTTAAGTTGG (sugars k3 d10 k3, PS)",67% and 77%
17,"TACTTAGCTGTGGTTT (sugars k3 d10 k3, PS)",23%
18,"TACTTCATTACCCCAA (sugars k3 d10 k3, PS)",34%
19,"TACTTGCCAACAGAAC (sugars k3 d10 k3, PS)",19%
20,"TACTTTAAGCCTTCGG (sugars k3 d10 k3, PS)",29%
21,"TAGAATCTTACTTGAT (sugars k3 d10 k3, PS)",34%
22,"TAGACGGAGAACAACT (sugars k3 d10 k3, PS)",29%
